Assay results as given in paper PMC9600068, “New Approach Methods for Hazard Identification: A Case Study with Azole Fungicides Affecting Molecular Targets Associated with the Adverse Outcome Pathway for Cholestasis” (Cells, 2022).

Target: T1, bile salt export pump (BSEP) (Homo sapiens, UniProt O95342)
T1 construct: gene ABCB11
Assay: inhibition of taurocholate transport in membrane preparations from HEK293 cells overexpressing human BSEP
Assay type: biochemical

T1 sequence (O95342 whole entry): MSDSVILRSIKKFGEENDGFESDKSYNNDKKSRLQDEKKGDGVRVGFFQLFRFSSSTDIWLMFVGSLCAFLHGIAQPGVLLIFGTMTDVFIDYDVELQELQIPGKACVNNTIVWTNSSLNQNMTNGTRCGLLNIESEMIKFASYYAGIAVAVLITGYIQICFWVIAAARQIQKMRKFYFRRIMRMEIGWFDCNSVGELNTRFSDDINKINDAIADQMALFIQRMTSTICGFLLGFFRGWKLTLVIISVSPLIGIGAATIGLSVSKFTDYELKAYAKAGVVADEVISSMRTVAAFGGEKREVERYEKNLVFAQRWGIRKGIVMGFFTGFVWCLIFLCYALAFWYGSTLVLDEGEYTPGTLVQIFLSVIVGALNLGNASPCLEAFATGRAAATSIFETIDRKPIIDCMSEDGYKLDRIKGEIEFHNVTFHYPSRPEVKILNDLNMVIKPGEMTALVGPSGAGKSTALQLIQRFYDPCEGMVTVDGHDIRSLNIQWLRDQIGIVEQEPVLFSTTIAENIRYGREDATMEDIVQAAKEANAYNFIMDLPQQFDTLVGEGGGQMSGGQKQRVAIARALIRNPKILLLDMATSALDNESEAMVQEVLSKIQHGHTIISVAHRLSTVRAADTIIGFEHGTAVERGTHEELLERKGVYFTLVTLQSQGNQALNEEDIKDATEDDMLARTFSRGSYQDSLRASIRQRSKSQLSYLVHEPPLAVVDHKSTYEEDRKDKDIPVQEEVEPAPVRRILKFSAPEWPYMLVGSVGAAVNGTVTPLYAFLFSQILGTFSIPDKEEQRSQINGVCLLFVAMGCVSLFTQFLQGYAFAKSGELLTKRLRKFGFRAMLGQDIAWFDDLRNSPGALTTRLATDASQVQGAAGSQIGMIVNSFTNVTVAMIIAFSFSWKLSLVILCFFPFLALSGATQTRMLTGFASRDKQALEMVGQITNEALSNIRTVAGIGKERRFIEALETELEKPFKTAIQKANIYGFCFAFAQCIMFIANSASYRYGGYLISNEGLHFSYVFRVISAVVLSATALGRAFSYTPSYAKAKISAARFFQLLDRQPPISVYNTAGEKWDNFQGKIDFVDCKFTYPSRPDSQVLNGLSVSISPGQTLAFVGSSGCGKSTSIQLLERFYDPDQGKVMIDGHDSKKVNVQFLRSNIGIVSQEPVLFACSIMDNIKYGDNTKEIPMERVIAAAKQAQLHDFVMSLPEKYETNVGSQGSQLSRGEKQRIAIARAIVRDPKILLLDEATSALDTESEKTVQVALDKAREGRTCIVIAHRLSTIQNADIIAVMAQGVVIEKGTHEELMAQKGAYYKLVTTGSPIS

In the case of `CCCC1COC(Cn2cncn2)(c2ccc(Cl)cc2Cl)O1` (centres unmarked) [Pi, propiconazole], the IC50 is reported as 78.6 µM.

`CC(C)(C)C(O)(CCc1ccc(Cl)cc1)Cn1cncn1` (centres unmarked) [Te, tebuconazole] gave an IC50 of 38 µM.
